Converted amounts (≈) assume the structure as drawn. “Also recorded” adds a separate entry of the source. Where two headings read alike, the source gives them in different places.
Experiments:
[1] = tested on: Mycobacterium tuberculosis
[2] = tested on: synthetic DNA dodecamer duplex d(CGCGAATTCGCG)2; assay: DNA binding by differential scanning calorimetry (DSC)
S. aureus UPPS = target: T1, S. aureus UPPS (Staphylococcus aureus, UniProt P60477); assay: biochemical
T1 construct: His-tag (pET-32 Xa/LIC vector tag) (N, cleaved yes); made in house; host or cells: E. coli BL21 (DE3)
T1 sequence (P60477 1-256): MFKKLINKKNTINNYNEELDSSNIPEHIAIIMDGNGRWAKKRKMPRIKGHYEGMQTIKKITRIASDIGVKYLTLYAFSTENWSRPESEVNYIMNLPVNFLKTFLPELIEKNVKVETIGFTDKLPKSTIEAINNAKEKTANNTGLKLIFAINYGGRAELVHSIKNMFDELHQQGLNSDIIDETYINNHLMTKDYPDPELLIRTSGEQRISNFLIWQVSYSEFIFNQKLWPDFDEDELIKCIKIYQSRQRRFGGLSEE
Description: (§1) Methods. EcUPPS and SaUPPS were expressed and purified as described previously (Durrant et al., Chem Biol Drug Des 2011, 78(3):323-332). UPPS inhibition assays were carried out as described previously, and UPPS/inhibitor crystals were obtained via soaking as described previously (Guo et al., Proc Natl Acad Sci USA 2007, 104(24):10022-10027). Structure determinations and refinements were carried out as described below in Example 3. […] Full synthesis and characterization details for all compounds investigated crystallographically are provided in Example 1 above. In vivo experiments used female BALB/c mice infected intraperitoneally with S. aureus (USA200), as described in detail in Example 3 below. Bacterial cell growth inhibition assays were carried out as described previously (Zhang et al., ACS Med Chem Lett 2012, 3(5):402-406).
(§2) UPPS Inhibition Assays. E. coli UPPS and S. aureus UPPS inhibition assays were carried out as described previously (Durrant et al., Chem Biol Drug Des 2011, 78(3):323-332). […] The IC50 values were obtained by fitting the inhibition data to a standard rectangular hyperbolic dose-response function in GraphPad PRISM 4.0 software (Graphpad Software, San Diego, Calif.). […] IPP and 0.01% Triton X-100.

E. coli = E. coli cell growth inhibition; format: cell-based; conditions: for MIC90: Escherichia coli
Description: (§3) Methods. EcUPPS and SaUPPS were expressed and purified as described previously (Durrant et al., Chem Biol Drug Des 2011, 78(3):323-332). UPPS inhibition assays were carried out as described previously, and UPPS/inhibitor crystals were obtained via soaking as described previously (Guo et al., Proc Natl Acad Sci USA 2007, 104(24):10022-10027). Structure determinations and refinements were carried out as described below in Example 3. For the eleven structures reported, the resolution was on average 1.88 Å (±0.29 Å) and Rfree was on average 24.6% (±3.9%). Full synthesis and characterization details for all compounds investigated crystallographically are provided in Example 1 above. In vivo experiments used female BALB/c mice infected intraperitoneally with S. aureus (USA200), as described in detail in Example 3 below. Bacterial cell growth inhibition assays were carried out as described previously (Zhang et al., ACS Med Chem Lett 2012, 3(5):402-406).
(§4) Cell growth inhibition. The growth of S. aureus (USA300 strain) and determination of MIC values were as described previously (Molohon et al., ACS chemical biology 2011, 6(12):1307-1313). E. coli growth and construction of isobolograms were also carried out basically as described previously (Leon et al., J Med Chem 2006, 49(25):7331-7341).

[3] = tested on: S. aureus (USA300 strain); assay: S. aureus cell growth inhibition; format: cell-based; conditions: USA300, MRSA strain; for MIC90: Staphylococcus aureus
Description: as §3, §4

E. coli UPPS = target: T2, E. coli UPPS (Escherichia coli, UniProt P60472); assay: E. coli UPPS inhibition assay; format: biochemical
T2 construct: His-tag (cleaved yes); made in house; host or cells: E. coli BL21 (DE3)
Description: as §1, §2

[4] = tested on: S. aureus USA200 Sanger 252 (MRSA) strain
UPPS = UPPS inhibition, enzyme species not given; format: biochemical
Description: as §1, §2

T2 sequence (P60472 whole entry): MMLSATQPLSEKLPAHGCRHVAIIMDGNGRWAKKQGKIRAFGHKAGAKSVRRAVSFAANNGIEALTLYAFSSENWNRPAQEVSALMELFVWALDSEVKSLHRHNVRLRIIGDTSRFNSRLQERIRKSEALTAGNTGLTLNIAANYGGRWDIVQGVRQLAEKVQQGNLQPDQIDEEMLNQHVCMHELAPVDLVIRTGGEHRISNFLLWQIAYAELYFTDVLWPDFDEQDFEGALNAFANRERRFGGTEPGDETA

| SMILES | IC50 (S. aureus UPPS) [µM] | MIC90 (E. coli) [µg/mL] | IC50 (E. coli UPPS) [µM] | MIC90 [3] [µg/mL] | other results |
| --- | --- | --- | --- | --- | --- |
| O=C(Nc1cccc(C2=NCCCN2)c1)c1ccc(-c2ccc(C(=O)Nc3cccc(C4=NCCCN4)c3)cc2)cc1 [BPH-1503] |  |  |  |  | concentration inhibiting Mycobacterium tuberculosis [1]: 1 µM; DNA binding (in words) [2]: binds to DNA; also recorded: strong DNA binding; shift in Tmax of DNA melting (DSC) ([2]; 1 mM DNA duplex, 1 mM compound): ~10 °C |
| O=P(O)(O)C(O)(Cc1cccc(-c2cccc3c2oc2ccccc23)c1)P(=O)(O)O [Compound 5, reference compound] | 0.35 |  |  |  | E. coli MIC90 (E. coli): >32 µg/mL; S. aureus MIC90 [3]: >32 µg/mL; IC50 (E. coli UPPS; read-out: E. coli UPPS IC50): 0.28 µM |
| CCCCCCCCCCCCOc1cccc(O)c1C(=O)O [Compound 11, (Dodecyloxy)-6-hydroxybenzoic acid] | 1.7 | > 32 | 2.2 |  |  |
| CCCCCCCCCCOc1cccc(C(=O)Nc2ccc([N+](=O)[O-])cc2C(=O)O)c1 [Compound 12, 2-(3-(Decyloxy)benzamido)-5-nitrobenzoic acid] | 0.49 | > 32 | 3 | > 32 |  |
| CCCCCCCCOc1cccc(COc2ccc(Br)cc2P(=O)(O)O)c1 [Compound 13, (5-bromo-2-((3-(octyloxy)benzyl)oxy)phenyl)phosphonic acid] | 2.5 | > 32 | 0.92 | 32 (≈ 67.9 µM) |  |
| O=C(Nc1cccc(C2=NCCN2)c1)c1ccc(C(=O)Nc2cccc(C3=NCCN3)c2)c([N+](=O)[O-])c1 [Compound 16, N^1, N^4-bis(3-(4,5-dihydro-1H-imidazol-2-yl)phenyl)-2-nitroterephthalamide] | 4.9 | 8 (≈ 16.1 µM) | 4.8 | > 32 |  |
| O=C(Nc1cccc(C2=NCCN2)c1)c1ccc(-c2ccc(C(=O)Nc3cccc(C4=NCCN4)c3)cc2)cc1 [Compound 17, N^4, N^4′-bis(3-(4,5-dihydro-1H-imidazol-2-yl)phenyl)-[1,1′-biphenyl]-4,4′-dicarboxamide] |  | 4 (≈ 7.57 µM) |  | 0.25 (≈ 0.473 µM) | adverse reactions in treated mice ([4]; 10 mg/kg intraperitoneally once daily, 3 doses): no apparent adverse reactions; mice survived ([4]; 10 mg/kg intraperitoneally once daily, 3 doses, pooled results of 2 experiments): 20/20; activity in mouse model of infection (in words) ([4]; 10 mg/kg once daily, 3 doses total): clear therapeutic activity; also recorded: No mice in the group treated once daily with 10 mg/kg of 17 (3 doses total) died during either experiment; concentration inhibiting Mycobacterium tuberculosis [1]: 0.4 to 0.5 µM; IC50 (UPPS; read-out: UPPS IC50): 0.1 µM; IC50 (UPPS; read-out: UPPS inhibition): ~0.1 µM |
| NCCc1cc(Br)cc(C#Cc2cccc(C#Cc3cc(Br)cc(CCN)c3)c2)c1 [Compound 18, 2,2′-((1,3-phenylenebis(ethyne-2,1-diyl))bis(3-bromo-5,1-phenylene))diethanamine] | 1.4 | 8 (≈ 15.3 µM) |  | > 32 | IC50 (E. coli UPPS; read-out: E. coli UPPS IC50): 6.1 µM |

Reference: patent US9951097B2, “Antibacterial compounds targeting isoprenoid biosynthesis” (priority 2012, dated 2018)
